Test: molar heat capacity at constant pressure
Conditions: 101.33 kPa, Small (less than 1 g) adiabatic calorimetry

COc1ccc(C2(c3ccc(OC)c(C)c3)OC(=O)c3ccccc32)cc1C [3,3-bis(4-methoxy-3-methylphenyl)-1(3H)-isobenzofuranone]
Conditions	molar heat capacity at constant pressure [J/K/mol]
5.802 K, Glass	2.967
6.011 K, Crystal	1.658
6.232 K, Glass	3.526
6.486 K, Crystal	2.176
6.689 K, Glass	4.234
6.977 K, Crystal	2.797
7.179 K, Glass	5.003
7.498 K, Crystal	3.461
7.715 K, Glass	5.872
8.061 K, Crystal	4.249
8.282 K, Glass	6.885
8.65 K, Crystal	5.21
8.874 K, Glass	8.044
9.274 K, Crystal	6.207
9.483 K, Glass	9.187
9.939 K, Crystal	7.418
10.1 K, Glass	10.44
10.63 K, Crystal	8.764
10.73 K, Glass	11.74
11.34 K, Crystal	10.21
11.35 K, Glass	13.13
11.98 K, Glass	14.45
12.03 K, Crystal	11.58
12.62 K, Glass	15.86
12.71 K, Crystal	13.08
13.28 K, Glass	17.41
13.41 K, Crystal	14.58
13.96 K, Glass	18.93
14.13 K, Crystal	16.23
14.66 K, Glass	20.58
14.89 K, Crystal	18.08
15.39 K, Glass	22.28
15.68 K, Crystal	19.91
16.15 K, Glass	24.12
16.49 K, Crystal	21.8
16.94 K, Glass	25.94
17.04 K, Crystal	22.93
17.66 K, Glass	27.62
17.91 K, Crystal	25.25
18.49 K, Glass	29.63
18.78 K, Crystal	27.27
19.34 K, Glass	31.77
19.67 K, Crystal	29.41
20.21 K, Glass	33.84
20.58 K, Crystal	31.37
21.11 K, Glass	35.96
21.5 K, Crystal	33.68
22.03 K, Glass	38.09
22.45 K, Crystal	35.73
23 K, Glass	40.41
23.44 K, Crystal	38.11
24.02 K, Glass	42.79
24.48 K, Crystal	40.68
25.08 K, Glass	45.25
25.54 K, Crystal	43.24
26.16 K, Glass	47.65
26.63 K, Crystal	45.57
27.26 K, Glass	50.09
27.74 K, Crystal	48.13
28.38 K, Glass	52.99
28.86 K, Crystal	51.61
29.5 K, Glass	56.69
29.99 K, Crystal	54.09
30.63 K, Glass	57.45
31.12 K, Crystal	55.63
31.76 K, Glass	60.08
32.25 K, Crystal	58.38
32.9 K, Glass	63.09
33.39 K, Crystal	61.18
34.06 K, Glass	65.62
34.56 K, Crystal	63.78
35.25 K, Glass	68.43
35.74 K, Crystal	66.5
36.45 K, Glass	70.84
36.95 K, Crystal	69.15
37.67 K, Glass	73.54
38.17 K, Crystal	71.7
38.9 K, Glass	75.9
39.4 K, Crystal	74.01
40.15 K, Glass	78.39
40.66 K, Crystal	76.39
41.41 K, Glass	80.76
41.94 K, Crystal	79
42.68 K, Glass	83.53
43.23 K, Crystal	81.44
43.93 K, Glass	85.97
44.51 K, Crystal	83.92
45.19 K, Glass	88.07
45.78 K, Crystal	86.54
46.45 K, Glass	90.22
47.06 K, Crystal	89.06
47.71 K, Glass	93.04
48.33 K, Crystal	91.12
48.97 K, Glass	95.25
49.6 K, Crystal	94.6
50.23 K, Glass	98.01
50.87 K, Crystal	97.15
